Experimental findings from US20250170079A1, “COMBINATIONS OF STAT-INHIBITORS AND IMMUNE CHECKPOINT INHIBITORS FOR THE TREATMENT AND/OR MANAGEMENT OF CANCER” (Tvardi Therapeutics, Inc., priority 2022, published 2025) are described below.

In data set [1] the test system is subcutaneous liver cancer syngeneic model H22. As to the kind of experiment: In vivo efficacy study of TTI-101 ± anti-PD-1 in subcutaneous liver cancer syngeneic model H22. The settings on record: TTI-101 1.2 mg/mouse p.o. BID*3 weeks and/or anti-PD-1 10 mg/kg i.p. BIW*3 weeks. Also on record: species or system female BALB/c mice. An excerpt: The objective of efficacy study was to evaluate preclinically the in vivo therapeutic efficacy of TTI-101 alone and in combination with anti-PD-1 in the treatment of subcutaneous liver cancer syngeneic model H22 in female BALB/c mice. The objective of rechallenge study was to evaluate immune memory of the female BALB/c mice previously cured from subcutaneous liver cancer syngeneic model H22 by TTI-101 combined with anti-PD-1.
Dosing volume of Anti-PD-1 (clone RMP1-14) was adjusted for body weight. The concentration of anti-PD-1 was 1 mg/mL, and dosing volume was 10 μL/g. The anti-PD-1 dosing solution was prepared by diluting 1.372 mL of anti-PD-1 (8.2 mg/mL) with 9.878 mL of PBS.
A composition of TTI-101 (72 mg/mL) dissolved in Kolliphor RH40, PEG600, Labrasol, Tween 20, and citric acid solution, was then dispersed in 1:2 water (vortexed) to form the dosing emulsion. The concentration of TTI-101 in the dosing emulsion was 24 mg/mL.
The H22 tumor cells were maintained in vitro with RPMI1640 medium supplemented with 10% fetal bovine serum (FBS) at 37° C. in an atmosphere of 5% CO2 in air. The cells in exponential growth phase were harvested and quantitated by cell counter before tumor inoculation.
In efficacy study, each mouse was inoculated subcutaneously in the right front flank region with tumor cells (1×10^6) in 0.1 ml of PBS for tumor development.
The randomization in efficacy study started when the mean tumor size reached approximately 73 mm^3 (for groups 1-5) and 96 mm^3 (for groups 6-9). Totally 82 mice were enrolled in the study and randomly allocated to 9 study groups, with 10 mice per group (groups 1-5) and 8 mice per group (groups 6-9). Randomization was performed based on “Matched distribution” method (Study Director TM software, version 3.1.399.19). The date of randomization was denoted as Day 1.
Test articles were given between 8 am-9 am then again between 4 pm-5 pm.
For group 5, TTI-101 was initiated 5 days post anti-PD-1 dosing per the request.
Tumor volumes were measured twice per week after randomization in two dimensions using a caliper, and the volume was expressed in mm^3 using the formula: V=(L×W×W)/2, where V is tumor volume, L is tumor length (the longest tumor dimension) and W is tumor width (the longest tumor dimension perpendicular to L). Dosing as well as tumor and body weight measurements were conducted in a Laminar Flow Cabinet.
Tumor growth inhibition (TGI), T/C value and Survival was applied at the endpoint.
Tumor regression (REG)=[(T0−Ti)/T0]×100%;
Tumor Growth Inhibition; TGI %=(1−Ti/Ci)*100;
Treatment/Control (T/C) value (%) is an indicator of tumor response to treatment, and one of commonly used anti-tumor activity endpoint; T and C are the mean tumor volumes of the treatment and control groups, respectively, on a given day. […]

Data set [2] can be described thus: Bioavailability and pharmacokinetics of TTI-101 following IP or PO administration. It counts as in vivo, male Sprague-Dawley rats. The settings on record: PO 25 mg/kg vs IP 25.6 mg/kg, single dose, rats. How it is done: Bioavailability and pharmacokinetics of TTI-101 in male Sprague-Dawley rats were evaluated following a single oral (PO) dose at 25 mg/kg (in labrasol:PEG400, 60:40% v/v) and a single intraperitoneal (IP) dose at 25.6 mg/kg (pH 7.4 PBS/propylene glycol/ethanol/DMSO, 20:70:5:5% v/v).

Setting [3] is: Day 21, vs vehicle+isotype group.

Regarding `COc1ccc(S(=O)(=O)Nc2cc(-c3c(O)ccc4ccccc34)c(O)c3ccccc23)cc1` [TTI-101, N-(1′,2-dihydroxy-1,2′-binaphthalen-4′-yl)-4-methoxybenzenesulfonamide], in data set [1] (setting [3]), the “T/C (%) on Day 21” value is 78.33% and the “TGI (%) on Day 21” value is on record as 21.67%. Moreover, in data set [1] (animals with CR / animals per group), the “CR Ratio (tumor complete response, tumor regressed to 0)” value is reported as 0/10. In data set [1] (mean ± SEM, Day 21), the “Tumor volume (mm^3) (N) on Day 21” value is 2073.36 mm^3. Besides, in data set [2], the “greater exposure by oral administration compared to interperitoneal administration” value stood at 90%.
